# Reference: patent US7342018B2, “Urokinase inhibitors and uses thereof” (Wilex AG, priority 1998, dated 2008)
# Like-named read-outs stand apart in the source and are kept apart here.
# Columns and labels:
# [1] = target: Sc-tPA (single chain tPA) (Homo sapiens, UniProt P00750); assay: In vitro inhibition of serine proteases: Sc-tPA; format: biochemical
# Method: (§1) To determine the inhibitory activity, 200 μl of Tris buffer (0.05 mol/l, containing the inhibitor, 0.154 mol/l NaCl, 5% ethanol pH 8.0), 25 μl of substrate (Pefachrome UK or Bz-βAla-Gly-Arg-pNA in H2O; Pentapharm Ltd., Basle, Switzerland) and 50 μl of sc-urokinase (Ribosepharm GmbH, Haan, Germany) were incubated at 25° C. After 3 min the reaction was stopped by adding 25 μl of acetic acid (50%), and the absorption at 405 nm was determined by means of a Microplate Reader (MR 5000, Dynatech, Denkendorf, Germany). Ki values were determined according to Dixon by linear regression using a computer program. The Ki values are the mean values of at least three determinations with a standard deviation of less than 25%.
# (§2) The inhibition activities of the enzymes used were determined according to the principle described in Example 3.
# [2] = Solubility in Tris buffer; conditions: Tris buffer (pH 7.3)
# [3] = tested on: pancreatic adenocarcinoma CA20948; assay: Pancreatic carcinoma model in rats; format: in vivo, rat; conditions: for mass of the tumor-containing pancreas, reduced by % / masses of the subcutaneous tumors, reduced by %: vs vehicle-treated group
# Method: Fragments of the transplantable and metastasizing pancreatic adenocarcinoma CA20948 from rats were explanted from donor animals. After cell isolation, equal amounts of suspended tumor cells together with 2 mg of Matrigel were subcutaneously implanted into each of the acceptor animals, male 10 week-old Lewis rats (n=9). The treatment procedure and also the composition of the therapy groups were the same as under A).
# The experiments described in sections A and B were repeated with the inhibitor administered in a different way. For this, the inhibitor was administered subcutaneously in the breast carcinoma model (n=9) and intraperitoneally in the pancreatic adenocarcinoma model (n=8) without changing the daily dose. The results of these repeat experiments corresponded to the results already discussed, both in tendency and extent.
# Factor XIIa = target: T1, Factor XIIa (Homo sapiens, UniProt P00748); assay: In vitro inhibition of serine proteases: factor XIIa; format: biochemical
# T1 sequence (P00748 373-615 limits assumed): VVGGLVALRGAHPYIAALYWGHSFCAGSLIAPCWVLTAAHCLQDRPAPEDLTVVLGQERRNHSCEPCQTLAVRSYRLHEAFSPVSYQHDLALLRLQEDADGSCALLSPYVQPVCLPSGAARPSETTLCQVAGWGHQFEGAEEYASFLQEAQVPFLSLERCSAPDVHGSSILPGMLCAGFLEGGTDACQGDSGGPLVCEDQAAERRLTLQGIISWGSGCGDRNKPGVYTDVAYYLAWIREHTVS
# Method: as §1, §2
# Plasma kallikrein = Plasma kallikrein (Homo sapiens, UniProt P03952); assay: In vitro inhibition of serine proteases: plasma kallikrein; format: biochemical
# Method: as §1, §2
# [4] = tested on: BN-472 rat mammary carcinoma; assay: BN-472 rat mammary carcinoma model, single agent and combination with cytotoxics (Example 11)
# Method: WX-UK1 was dissolved in 5% w/v of D-mannitol to the appropriate dosage and administered once daily or twice weekly either subcutaneously (s.c.) or intraperitonally (i.p.).
# Epirubicin (0.75-3 mg/kg body wight), paclitaxel (5-7.5 mg/kg) or 5-FU (20 and 40 mg/kg) was given once weekly by i.v. injection into the external jugular vein.
# Control rats received the vehicle 5% w/v of D-mannitol once daily s.c.
# A donor rat bearing a tumor of 20×20 mm was sacrificed, the tumor harvested ant the cortex part was sliced into cubes of approximately 10 mm^3 and the transplated orthotopically under the mammary fad pads of female Brown Norway rats.
# Treatment was started three or six days (5-FU experiment) after tumor inoculation. Each treatment group consisted of 15 to 21 rats.
# Tumor load is plotted as the average±standard error of the mean (SEM).
# Tumor, organ weights as well as lung foci counts are presented in Box-Whisker graphs. […] Whiskers extend to the extreme lower 5th and upper 95th percentiles of values. Dots represent individual data.
# P-values represent significance levels of pairwise comparisons of treatment groups versus vehicle control. For combination therapy experiments the P-values for the comparison of a cytostatic mono-therapy versus the combination therapy is given.
# rat breast tumor BN472 = assay: BN472 rat breast tumor model, metastatic lung foci (Example 10); format: in vivo
# From the text: In detail, the syngeneic transplantable spontaneously metastasizing rat breast tumor BN472 was used as a model. BN-472 transplantable rat mammary carcinoma used in this study was originally found spontaneously developed in a retired breeder female Brown Norway rat (Kort et al. J. Nat. Cancer Inst. 1984, 72: 7709-7713). The data presented here focus on the reduction in the number of metastatic lung foci as endpoint.
# FIG. 7 depicts the anti-metastatic efficacy of WX-UK1 in a setting implying surgical resection of the orthotopically growing tumor at a defined size and various time points of therapy onset relative to resection. After orthotopic implantation of BN472 fragment under the mammary fat pad the primary tumors were allowed to grow to a fixed palpable size (4×4 mm). The treatments groups (n=18) were allocated in a way to ensure homogeneous group composition with respect to tumor residence periods (range 3-14 d) prior group allocation. Primary tumors were surgically removed 4 days after having reached the fixed size. Onsets of treatments with 0.3 mg/kg s.c. daily were group specifically either on the day of reaching the fixed size (PO)mor four (P4), eight (P8), or twelve (P112) days thereafter. […] Starting on day 3 after tumor inoculation treatment groups (n=15) received WX-UK1 at weekly doses of […] either by daily application of 0.3 mg/kg (0.3 mg/kg o.d.), by application of 1 mg/kg twice per week (1 mg/kg t.w.) or by dosing 2 mg/kg once per week (2 mg/kg o.w.). The anti-metastatic efficacy previously established with daily treatments was retained when WX-UK1 was administered only twice or once per week at the same weekly dose.
# Treatment was initiated on day 3 after tumor inoculation. b) Groups of rats (n=8) were treated with 5-FU at 20 or 40 mg/kg i.v. once weekly either as mono-therapy or in combination with WX-UK1 i.p. treatments at 1 mg/kg twice weekly or with WX-UK1 alone. Indeed, WX-UK1 was efficacious at reducing lung foci numbers when combined with these standard therapeutics.
# [5] = Phase I clinical trial in healthy male volunteers (WX/50-001); format: in vivo, human; conditions: for tolerability: all dose levels
# Method: In the first clinical trial with WX-UK1 (WX/50-001) the drug was investigated in a double-blind, randomized, three-way cross-over, placebo controlled phase I study focussing on pharmacokinetics, pharmacodynamics, safety, and tolerability of increasing doses of WX-UK1.
# In this study six ascending i.v. Doses of WX-UK1 in the range of 0.01 to 0-3 mg/kg were administered and each dose was given to groups of six healthy male volunteers.
# Urokinase (sc-urokinase) = target: T2, Urokinase (sc-urokinase) (Homo sapiens, UniProt P00749); assay: In vitro inhibition of urokinase (chromogenic substrate, Dixon Ki); format: biochemical
# T2 construct: purchased Ribosepharm GmbH, Haan, Germany
# Method: as §1
# [6] = 1 mg/kg daily, vs naphthyl derivative and control (FIG. 5)
# Chain of Sc-tPA (single chain tPA) (P00750 36-562): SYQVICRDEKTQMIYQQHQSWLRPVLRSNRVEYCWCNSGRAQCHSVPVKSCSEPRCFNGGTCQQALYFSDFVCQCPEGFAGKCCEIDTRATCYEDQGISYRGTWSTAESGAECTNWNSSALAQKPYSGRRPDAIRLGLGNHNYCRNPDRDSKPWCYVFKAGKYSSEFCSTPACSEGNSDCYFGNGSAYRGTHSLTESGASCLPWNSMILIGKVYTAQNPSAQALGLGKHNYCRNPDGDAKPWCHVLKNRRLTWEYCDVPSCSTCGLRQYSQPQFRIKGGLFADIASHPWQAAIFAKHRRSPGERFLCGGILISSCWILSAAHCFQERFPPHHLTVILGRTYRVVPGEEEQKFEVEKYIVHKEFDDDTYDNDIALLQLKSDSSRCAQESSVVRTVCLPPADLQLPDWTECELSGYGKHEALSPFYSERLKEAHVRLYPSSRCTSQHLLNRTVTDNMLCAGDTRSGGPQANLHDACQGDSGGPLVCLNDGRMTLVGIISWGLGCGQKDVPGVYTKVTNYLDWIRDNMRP
# Chain of Plasma kallikrein (P03952 20-638, species assumed): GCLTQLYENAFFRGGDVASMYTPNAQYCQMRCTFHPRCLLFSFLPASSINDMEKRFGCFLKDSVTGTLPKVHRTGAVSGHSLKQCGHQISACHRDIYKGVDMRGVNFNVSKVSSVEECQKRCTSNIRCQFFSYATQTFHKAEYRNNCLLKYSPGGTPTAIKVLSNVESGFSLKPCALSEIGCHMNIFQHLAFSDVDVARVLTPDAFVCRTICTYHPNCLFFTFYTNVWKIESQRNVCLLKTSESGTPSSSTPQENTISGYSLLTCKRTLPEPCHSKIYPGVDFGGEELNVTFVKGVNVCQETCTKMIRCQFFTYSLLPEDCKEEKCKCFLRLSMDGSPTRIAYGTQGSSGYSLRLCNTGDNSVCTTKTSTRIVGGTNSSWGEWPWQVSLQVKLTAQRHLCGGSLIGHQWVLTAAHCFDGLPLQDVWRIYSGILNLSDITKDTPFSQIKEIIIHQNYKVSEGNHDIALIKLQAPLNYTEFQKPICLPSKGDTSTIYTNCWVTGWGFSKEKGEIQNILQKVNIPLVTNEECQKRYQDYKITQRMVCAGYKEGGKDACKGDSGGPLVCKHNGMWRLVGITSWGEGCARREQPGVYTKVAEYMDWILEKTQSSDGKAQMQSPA
smiles,measurement,setting,value
"CCOC(=O)N1CCN(C(=O)[C@H](Cc2cccc(C(=N)N)c2)NS(=O)(=O)c2c(C(C)C)cc(C(C)C)cc2C(C)C)CC1.Cl [uPA inhibitor, Nα-2,4,6-Triisopropylphenylsulfonyl-(L)-3-amidinophenylalanine 4-ethoxycarbonylpiperazide hydrochloride]",Ki,[1],4.9 µM
same,solubility,[2]; addition of 5% DMSO,10^−3 mol/l
same,solubility,[2]; addition of 5% ethanol,2×10^−4 moll
same,growth of developing rat pancreatic carcinomas,[3]; [6],decrease
same,tumor weight,[3]; [6],significant reduction
same,"number of detected liver foci, % compared to vehicle-treated control","[3]; i.p., 1 mg/kg daily",29%
same,"mass of the tumor-containing pancreas, reduced by %","[3]; i.p., 1 mg/kg daily",76%
same,"masses of the subcutaneous tumors, reduced by %","[3]; i.p., 1 mg/kg daily",54%
same,number of metastatic liver foci,"[3]; rat pancreatic cancer model, vs vehicle-treated controls",substantially reduced
same,"number of detected liver foci, % compared to vehicle-treated control","[3]; s.c., 1 mg/kg daily",2%
same,"mass of the tumor-containing pancreas, reduced by %","[3]; s.c., 1 mg/kg daily",34%
same,"masses of the subcutaneous tumors, reduced by %","[3]; s.c., 1 mg/kg daily",60%
same,Ki,Factor XIIa,13 µM
same,Ki,Plasma kallikrein,7.2 µM
same,"anti-metastatic effects in combination therapies (lymph nodes weight, macroscopic lung foci number)",[4]; WX-UK1 and the cytostatic agents,additional anti-metastatic effects
same,anti-metastatic effects in combination,[4]; combined with either epirubicin and in particular with 5-FU,statistically significant additive anti-metastatic effects
same,number of macroscopically detectable lung foci,[4]; compared with 5-FU,equally effective
same,number of macroscopically detectable lung foci,[4]; compared with epirubicin or paclitaxel,more effectively reduced
same,"anti-tumor effects (tumor size development, final tumor weight)",[4]; daily administration,Dose-dependent anti-tumor effects
same,metastatic endpoints in combination,"[4]; plus epirubicin, paclitaxel or 5-FU",tended to provide additive benefits
same,reducing lymphogenic spread as determined by lymph-node weight,"[4]; single agent, compared with epirubicin, paclitaxel or 5-FU alone",more or similarly active
same,anti-metastatic activity with surgical resection of the primary tumor,"rat breast tumor BN472; 0.3 mg/kg s.c. daily, various onsets relative to resection (FIG. 7)",Anti-metastatic activity was obvious
same,anti-metastatic efficacy at prolonged dosing intervals,rat breast tumor BN472; 1 mg/kg twice per week or 2 mg/kg once per week vs 0.3 mg/kg daily (FIG. 8),retained
same,reducing lung foci numbers in combination,rat breast tumor BN472; combined with epirubicin or 5-FU (FIG. 9),efficacious
same,"changes in vital signs, ECG parameters, general safety laboratory parameters and adverse event profiles",[5]; attributable to the study drug,No changes
same,"mean increases of coagulation parameters PT, aPTT and TT","[5]; doses of 0.05 mg/kg and higher, end of infusion, 0-5% with placebo",6-13%
same,dose proportionality in PK studies,[5]; healthy volunteers,good dose proportionality
same,systemic and local safety profile,[5]; healthy volunteers,advantageous systemic and local safety profile
same,bleeding times,"[5]; human, in vivo",unchanged
same,drug-induced hemolysis,"[5]; human, in vivo",no indication
same,time for coagulation parameters to return to baseline,"[5]; human, in vivo",≤ 15 min
same,time of maximum plasma concentrations,[5]; i.v. infusion (FIG. 10),at the end of the 30 min. infusion period
same,mean terminal half lives,"[5]; i.v. infusion, healthy male volunteers",10 to 12 h
same,tolerability,"[5]; i.v. infusion, healthy volunteers, listed as WK-UK1, hydrochloride",well tolerated
same,tolerability,"[5]; i.v. infusion, healthy volunteers, listed as WX-UK1, hydrochloride",very well tolerated
same,renal excretion of the parent compound,[5]; share of the dose,less then one percent
same,Ki,"Urokinase (sc-urokinase); in vitro inhibition of urokinase, 25° C, pH 8.0, 5% ethanol, read-out: Ki",0.41 µM
same,Ki,Urokinase (sc-urokinase); read-out: Ki Urokinase,0.41 µM
